Read-outs that look alike come from different tables or passages of the source.
What was measured:
p53 Y220S mutant DBD [1] = target: T1, p53 Y220S mutant DBD (Homo sapiens, UniProt P04637, M133L/N239Y/N268D/V203A/Y220S); test: DSF thermal shift assay, Y220S mutant; type: binding; conditions: 250 μM compound
T1 construct: the mutant p53 DBD (residues 94–312) of interest; 6xHis (N, cleaved yes); lipoyl domain of dihydrolipoamide acetyltransferase (Bacillus stearothermophilus) (N, cleaved yes); made in house; host or cells: E. coli C41
Experimental: (§1) Melting temperatures of the p53 mutants were determined by differential scanning fluorimetry (DSF) using the dye SYPRO Orange (Invitrogen), which quantitatively binds to hydrophobic protein patches that become exposed upon thermal unfolding. Real-time melt analyses were performed using either an Agilent MX3005P (heating rate of 270 K/h excitation/emission filters = 492/610 nm; Tables 2 and 4) or a Corbett Rotor-Gene 6000 real-time qPCR thermocycler (heating rate of 180 K/h, excitation/emission filters = 460/510 nm; Table 3). Tm measurements were performed with 8 μM p53 protein and 5–10 × SYPRO Orange (Life Technologies) in a 25 mM KPi (pH 7.2), 150 mM NaCl, and 1 mM TCEP assay buffer. For measurements of compound-induced Tm shifts (ΔTm), the assay buffer additionally contained 5% DMSO (v/v), with either 250 μM ligand or no ligand (control). ΔTm values were calculated as ΔTm = Tm (protein + compound) – Tm (protein). Native melting curves were measured in quadruplicate and compound-induced thermal shifts in triplicate or higher. Mean values ± SEM are given.

p53 Y220C mutant DBD [2] = target: T2, p53 Y220C mutant DBD (Homo sapiens, UniProt P04637, M133L/N239Y/N268D/V203A/Y220C); test: DSF thermal shift assay, Y220C mutant; type: binding; conditions: 250 μM compound
T2 construct: the mutant p53 DBD (residues 94–312) of interest; 6xHis (N, cleaved yes); lipoyl domain of dihydrolipoamide acetyltransferase (Bacillus stearothermophilus) (N, cleaved yes); made in house; host or cells: E. coli C41
Experimental: as §1

[3] = target: T3, p53 DBD WT (stabilized M133L/V203A/N239Y/N268D) (Homo sapiens, UniProt P04637, M133L/N239Y/N268D/V203A); test: DSF thermal shift assay, WT (stabilized quadruple mutant DBD); type: binding; conditions: 250 μM compound, Agilent MX3005P, 270 K/h, triplicate, mean ± SEM (Table 4)
T3 construct: the mutant p53 DBD (residues 94–312) of interest; 6xHis (N, cleaved yes); lipoyl domain of dihydrolipoamide acetyltransferase (Bacillus stearothermophilus) (N, cleaved yes); made in house; host or cells: E. coli C41
Experimental: as §1

p53 Y220H mutant DBD = target: T4, p53 Y220H mutant DBD (Homo sapiens, UniProt P04637, M133L/N239Y/N268D/V203A/Y220H); test: DSF thermal shift assay, Y220H mutant; type: binding; conditions: 250 μM compound, Agilent MX3005P, 270 K/h, triplicate, mean ± SEM (Table 4)
T4 construct: the mutant p53 DBD (residues 94–312) of interest; 6xHis (N, cleaved yes); lipoyl domain of dihydrolipoamide acetyltransferase (Bacillus stearothermophilus) (N, cleaved yes); made in house; host or cells: E. coli C41
Experimental: as §1

p53 Y220N mutant DBD [4] = target: T5, p53 Y220N mutant DBD (Homo sapiens, UniProt P04637, M133L/N239Y/N268D/V203A/Y220N); test: DSF thermal shift assay, Y220N mutant; type: binding; conditions: 250 μM compound, Agilent MX3005P, 270 K/h, triplicate, mean ± SEM (Table 4)
T5 construct: the mutant p53 DBD (residues 94–312) of interest; 6xHis (N, cleaved yes); lipoyl domain of dihydrolipoamide acetyltransferase (Bacillus stearothermophilus) (N, cleaved yes); made in house; host or cells: E. coli C41
Experimental: as §1

p53 Y220S mutant DBD [5] = target: T1, p53 Y220S mutant DBD; test: Isothermal titration calorimetry, Y220S mutant; type: binding; conditions: for Kd: ITC, 20 °C, 25 mM KPi pH 7.2, 5% DMSO
Experimental: (§2) Isothermal titration calorimetry (ITC) experiments for the Y220C and Y220S mutants were performed using a MicroCal (Amherst) iTC200 calorimeter as described.[14] Briefly, the cell unit contained 30–50 μM protein in a 25 mM KPi (pH 7.2), 150 mM NaCl, 1 mM TCEP, and 5% (v/v) DMSO assay buffer. The syringe contained 0.5–2 mM compound in the same buffer, using injection steps of 2 μL at a rate of 0.5 μL/s (initial injection: 0.5 μL) and 120 s spacing. […] Data analysis was performed using the MicroCal Origin software. ITC measurements for the Y220N mutant were carried out with the same buffers as above but using a Nano ITC microcalorimeter (TA Instruments) and injection steps of 8 μL, at a rate of 0.5 μL/s, and 200 s spacing. Data were processed using the NanoAnalyze software (Version 3.5.0) supplied with the instrument. All measurements were performed at 20 °C.

p53 Y220C mutant DBD [6] = target: T2, p53 Y220C mutant DBD; conditions: ITC, cited from earlier work
p53 Y220N mutant DBD [7] = target: T5, p53 Y220N mutant DBD; test: Isothermal titration calorimetry, Y220N mutant; type: binding; conditions: ITC, Nano ITC, 20 °C
Experimental: as §2

[8] = 8 μM protein, 5% DMSO, Rotor-Gene 6000, 180 K/h, quadruplicate, mean ± SEM (Table 3), read-out: Y220S mutant ΔTm
[9] = 8 μM protein, 5% DMSO, Rotor-Gene 6000, 180 K/h, quadruplicate, mean ± SEM (Table 3), read-out: Y220C mutant ΔTm
[10] = Agilent MX3005P, 270 K/h, triplicate, mean ± SEM (Table 4), read-out: ΔTm Y220S
[11] = Agilent MX3005P, 270 K/h, triplicate, mean ± SEM (Table 4), read-out: ΔTm Y220C

ΔTm at 250 µM (p53 Y220S mutant DBD [1]; [8]) [°C]	ΔTm at 250 µM (p53 Y220C mutant DBD [2]; [9]) [°C]	SMILES	Kd (p53 Y220C mutant DBD [6]; ref 17 (Bauer et al.)) [µM]	other results
1.5 ± 0.1	3.7	CCn1c2ccc(CNC)cc2c2ccc(-c3cc(C)cs3)cc21 [PK9328]		
		CCn1c2ccc(CN(C)C)cc2c2ccc(Br)cc21 [PK9285]		ΔTm at 250 µM [3]: -0.2 ± 0.1 °C; ΔTm at 250 µM (p53 Y220H mutant DBD): 0.2 °C; ΔTm at 250 µM (p53 Y220N mutant DBD [4]): 1.4 ± 0.1 °C; ΔTm at 250 µM (p53 Y220S mutant DBD [1]; [10]): 2.1 ± 0.1 °C; ΔTm at 250 µM (p53 Y220C mutant DBD [2]; [11]): 2 °C
1.2 ± 0.1	2.3 ± 0.1	CCn1c2ccc(CNC)cc2c2ccc(-c3cnoc3)cc21 [PK9424]		
		CCn1c2ccc(CNC)cc2c2ccc(-c3ccoc3)cc21 [PK9321]		ΔTm at 250 µM [3]: 0.2 ± 0.1 °C; ΔTm at 250 µM (p53 Y220H mutant DBD): 0.7 ± 0.1 °C; ΔTm at 250 µM (p53 Y220N mutant DBD [4]): 1.4 ± 0.1 °C; ΔTm at 250 µM (p53 Y220S mutant DBD [1]; [10]): 2.1 ± 0.1 °C; ΔTm at 250 µM (p53 Y220C mutant DBD [2]; [11]): 3.1 ± 0.1 °C
3.2	1.7 ± 0.1	CNCc1ccc2c(c1)c1ccccc1n2CC(F)(F)F [PK9255]		Kd (p53 Y220S mutant DBD [5]): 16 ± 2 µM; Tighter binding to Y220S than to Y220C (ratio of Kd) (p53 Y220S mutant DBD [5]; Kd 16 μM (Y220S) vs 28 μM (Y220C)): about 2 times; Kd (p53 Y220C mutant DBD [6]; ref 14 (Bauer et al.)): 28 µM; ΔTm at 250 µM [3]: 0 °C; ΔTm Y220H (p53 Y220H mutant DBD): no significant stabilizing effect; ΔTm at 250 µM (p53 Y220H mutant DBD): 0.2 ± 0.1 °C; ΔTm at 250 µM (p53 Y220N mutant DBD [4]): 1.4 ± 0.1 °C; ΔTm at 250 µM (p53 Y220S mutant DBD [1]; [10]): 3.2 °C; Kd (p53 Y220N mutant DBD [7]): 40 µM; ΔTm at 250 µM (p53 Y220C mutant DBD [2]; [11]): 1.7 ± 0.1 °C
1.8 ± 0.1	2.4 ± 0.1	CCn1c2ccc(CNC)cc2c2ccc(Br)cc21 [PK9284]	14 ± 2	
1.1 ± 0.1	2.1 ± 0.1	CCn1c2ccc(CNC)cc2c2ccc(-c3sccc3C)cc21 [PK9331]		
> 5	3.5 ± 0.1	CNCc1ccc2c(c1)c1ccc(Br)cc1n2CC(F)(F)F [PK9301, 1-(7-Bromo-9-(2,2,2-trifluoroethyl)-9H-carbazol-3-yl)-N-methylmethanamine]		Kd (p53 Y220S mutant DBD [5]): 4 ± 1 µM
1.2	3.7 ± 0.2	CCn1c2ccc(CNC)cc2c2ccc(-c3ccc(C)s3)cc21 [PK9327]		
0.7 ± 0.1	1 ± 0.1	CCn1c2ccccc2c2cc(CNC)ccc21 [PK083]		

SMILES	ΔTm at 250 µM (p53 Y220S mutant DBD [1]; [8]) [°C]	ΔTm at 250 µM (p53 Y220C mutant DBD [2]; [9]) [°C]	Kd (p53 Y220C mutant DBD [6]; ref 17 (Bauer et al.)) [µM]	other results
CCn1c2ccc(CNC)cc2c2ccc(-c3cscn3)cc21 [PK9323]	3.7 ± 0.3	3.1 ± 0.1	5.3 ± 1.4	Kd (p53 Y220S mutant DBD [5]): 5.9 ± 1.3 µM; ΔTm at 250 µM [3]: -0.4 ± 0.2 °C; ΔTm at 250 µM (p53 Y220H mutant DBD): -0.3 ± 0.1 °C; ΔTm at 250 µM (p53 Y220N mutant DBD [4]): 0.7 ± 0.1 °C; ΔTm at 250 µM (p53 Y220S mutant DBD [1]; [10]): 3.7 ± 0.3 °C; ΔTm at 250 µM (p53 Y220C mutant DBD [2]; [11]): 3.1 ± 0.1 °C
CCn1c2ccc(CNC)cc2c2ccc(-c3ccco3)cc21 [PK9320]	1.8 ± 0.1	3.4	4.1 ± 0.2	
CCn1c2ccc(CNC)cc2c2ccc(-c3nccs3)cc21 [PK9322]	3	3.4	8.3 ± 2.6	
CCOc1ccc2c3cc(CNC)ccc3n(CC)c2c1 [PK9295]	0.9	1.2 ± 0.1	62 ± 7	
CCn1c2ccc(CNC)cc2c2ccc(-c3cccs3)cc21 [PK9318]	2.1	4.4 ± 0.1	2.6 ± 0.4	
